From PubChem BioAssay (NCI)
“And” between values parts separate entries of the source, which are not always exact repeats. Equal entries are not always repeated.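 The compound was tested at five concentrations on cells cultured in 96-well plates, with a 48-hour exposure period. Abbreviation: GI50, concentration required for 50% inhibition of growth. The concentration for full growth arrest is given as TGI.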 Where a SMILES comes first, the peptide text is derived from it. The star is where a group is joined. Boc = CC(C)(C)OC(=O)*; nBu = CCCC*

What was measured:
Experiment in all cases: DTP human tumour cell line panel, 48 h
[1] = test system: SNB-19 CNS
[2] = test system: RPMI-8226 leukemia
[3] = test system: IGROV1 ovarian
[4] = test system: CAKI-1 renal
[5] = test system: MOLT-4 leukemia
[6] = test system: RXF 393 renal
[7] = test system: SK-OV-3 ovarian
[8] = test system: NCI/ADR-RES ovarian
[9] = test system: UACC-257 melanoma
[10] = test system: OVCAR-4 ovarian
[11] = test system: SR leukemia
[12] = test system: EKVX NSCLC

SMILES | TGI [1] | TGI [2] | TGI [3] | TGI [4] | TGI [5] [µM] | TGI [6] | TGI [7] | TGI [8] [µM] | TGI [9] | TGI [10] | TGI [11] | TGI [12] | GI50 [3] | GI50 [5] | GI50 [6] | GI50 [9] | GI50 [11] [µM] | GI50 [1] [µM] | GI50 [7] [µM]
CCCCOc1ccc(CC(NC(=O)OC(C)(C)C)C(=O)NC(C)C(=O)NC(Cc2ccccc2)C(=O)NCC(N)=O)cc1 (stereo not drawn) (Boc-Y(nBu)AFG-NH2; configuration not given here) | > 100 µM | > 100 µM | > 100 µM | > 100 µM | 53.3 | > 100 µM | > 100 µM | > 100 | > 100 µM | > 100 µM |  |  |  |  |  |  |  |  | 
N#C/C(=C(/O)CCl)c1nc2ccccc2o1 | > 100 µM | 7.87 µM | 4.09 µM | 22.6 µM | 10.3 | 3.77 µM | 24.7 µM | 5.4 | 13.2 µM | 3.97 µM | 15 µM |  |  |  |  |  |  |  | 
O=P(NCCCO)(OCc1ccccc1)N(CCCl)CCCl (stereo not drawn) | > 100 µM |  | > 100 µM | > 100 µM | > 100 | > 100 µM | > 100 µM | > 100 | > 100 µM | > 100 µM |  |  |  |  |  |  |  |  | 
O=[N+]([O-])c1ccc(N=Nc2c(O)[nH]c3ccccc23)c([N+](=O)[O-])c1 | 51 µM | > 100 µM | 24.2 µM | 43.9 µM | > 100 | 31.5 µM | 32.4 µM | 59.9 | 34.6 µM | 30.7 µM | > 100 µM | 20.7 µM |  |  |  |  |  |  | 
Nc1nc(SCC(=O)c2ccc(Br)cc2)c2[nH]cnc2n1 | > 100 µM | > 100 µM | 50.8 µM | > 100 µM |  | > 100 µM | > 100 µM | 93.6 | > 100 µM | > 100 µM | > 100 µM | > 100 µM |  |  |  |  |  |  | 
C=C1C(O)C2(O)OCC34C(CC5C(C)=CC(=O)C(O)C5(C)C23)OC(=O)C(OC(=O)C/C=C/CCCCCCCC)C14 (stereo not drawn) | 0.0335 µM | 0.0249 µM | 0.0303 µM | 0.232 µM | 0.533 | 0.0211 µM | 0.606 µM | 2.55 |  |  |  | 0.027 µM |  |  |  |  |  |  | 
CC(C)CC(N)C(=O)NC(C(=O)NC(CCCNC(=N)N)C(=O)NC(CS)C(=O)NC1CSCC(C(=O)NC(Cc2ccccc2)C(=O)NC(C(=O)NC(CCCNC(=N)N)C(=O)O)C(C)C)NC(=O)C2CCCN2C(=O)C(CCCCN)NC(=O)C2CCCN2C(=O)C2CCCN2C(=O)C(Cc2ccc(O)cc2)NC(=O)C(CO)NC(=O)C(CCCCN)NC(=O)C(C(C)O)NC(=O)C(Cc2c[nH]c3ccccc23)NC1=O)C(C)C (stereo not drawn) | > 25 µM | > 25 µM | > 25 µM | > 25 µM | > 25 |  | > 25 µM | > 25 | > 25 µM | > 25 µM | > 25 µM | > 25 µM |  |  |  |  |  |  | 
COc1ccc(N2C(=O)C(=O)C3(CCCCC3)C2=O)c2ccccc12 | > 10 µM | > 10 µM | > 10 µM | > 10 µM | > 10 | > 10 µM | > 10 µM | > 10 |  | > 10 µM | > 10 µM | > 10 µM |  |  |  |  |  |  | 
O=C(Nc1ccccc1)Oc1ccc(C(=S)Nc2ccc(Br)cc2)cc1 |  | > 100 µM | 28 µM | 41 µM | 66.2 |  | > 100 µM | 39.7 | 67.1 µM | 86.3 µM | 50.8 µM | 31.1 µM |  |  |  |  |  |  | 
CC(=O)c1ccc(Nc2c3ccccc3nc3occc23)cc1 | > 100 µM | 4.28 µM | 0.607 µM | 4.68 µM | 32.2 | < 0.0216 µM | 13.2 µM |  | 48.8 µM |  | 18.5 µM | > 45.9 µM |  |  |  |  |  |  | 
O=C1c2c(Br)sc(Br)c2[C@@H](O)[C@H]1O | 38.3 µM | 47.6 µM | 35.7 µM | 33.7 µM | 32.6 | 30 µM | 29.4 µM | 56.5 | 29.3 µM | 29.5 µM | 4.84 µM | 34 µM |  |  |  |  |  |  | 
Cc1ccc(-c2cn3c(nc4ccccc43)c(/C=C/c3ccco3)n2)cc1 | > 100 µM | 67.7 µM | > 100 µM |  |  | > 100 µM | > 100 µM | > 100 | > 100 µM | > 100 µM | 89 µM |  |  |  |  |  |  |  | 
COc1ccc(CCn2cncn2)cc1 | > 100 µM |  | > 100 µM |  | > 100 |  | > 100 µM |  | > 100 µM | > 100 µM | > 100 µM | > 100 µM |  |  |  |  |  |  | 
O=c1c2cc(O)ccc2n2nnc3ccc(NCCNCCO)c1c32 | 39.4 µM and 29.1 µM | 65 µM and 31.7 µM | > 78.7 µM and 39.1 µM | 43 µM and > 61.9 µM |  | 14.4 µM and 9.34 µM | > 100 µM and 37 µM |  | 53.8 µM and 20.7 µM | 33.2 µM and 15.9 µM | 14.7 µM and 4.29 µM | 97 µM and 48.1 µM | 14.4 µM and 5.57 µM | 1.83 µM and 0.205 µM | 3.26 µM and 1.15 µM | 20.5 µM and 6.76 µM |  |  | 
COc1ccccc1-c1c(C#N)c(N)[nH]c(=S)c1C#N | > 100 µM | > 100 µM | > 100 µM | > 100 µM | > 100 | > 100 µM |  | > 100 | > 100 µM | > 100 µM | > 100 µM | > 100 µM |  |  |  |  |  |  | 
CN(C)c1ccc(-c2ccc(-c3ccc(C(=N)N)cn3)o2)cc1 | 3.64 µM |  | 3.6 µM |  |  |  | 3.28 µM |  | 3.43 µM |  | 2.01 µM |  | 1.89 µM |  |  | 1.77 µM | 0.378 | 1.87 | 1.88
